Results on 21 compounds are retold here after patent US9346782B2, “Alkyl linked quinolinyl modulators of RORγt” (Janssen Pharmaceutica NV, priority 2013, dated 2016).

Experiment [1] deals with human RORγt LBD (Homo sapiens (Human), UniProt P51449). The experiment can be described thus: RORγt Reporter Assay. It counts as cell-based. As to conditions: for IC50 / RORγt reporter Assay, % inhibition @ 6 μM: HEK293T cells; for inhibition at 6 µM: HEK-293T, read-out: RORγt reporter Assay, % inhibition @ 6 μM, HEK293T cells, 6 μM. From the text: A reporter assay was used to test functional activity of RORγt modulatory compounds on transcriptional activation driven by the RORγt LBD. Cells used in the assay were co-transfected with two constructs. The first construct, pBIND-RORγt LBD, contained the wild type human RORγt LBD fused to the DNA binding domain of the GAL4 protein. The second construct, pGL4.31 (Promega Cat no. C935A), contained multiple GAL4 responsive DNA elements upstream of firefly luciferase. […] The mutant construct was called pBIND-RORγt-AF2.
The pBIND vector contains the GAL4 DNA Binding Domain (GAL4 DBD) and the renilla luciferase gene under control of the SV40 promoter. Renilla luciferase expression serves as a control for transfection efficiency and cell viability.
The reporter assay was performed by transiently transfecting HEK293T cells with 5 μg of pBIND-RORγt LBD or pBIND-RORγt LBD-AF2 and 5 μg pGL4.31 (Promega Cat no. C935A) using Fugene 6 (Invitrogen Cat no. E2691) at a 1:6 ratio of DNA:Fugene 6 in a T-75 flask in which cells were at least 80% confluent. Twenty four hours after bulk transfection, cells were plated into 96-well plates at 50,000 cells/well in phenol-red free DMEM containing 5% Lipid Reduced FCS and Pen/Strep. Six hours after plating, cells were treated with compounds for 24 hours. Media was removed and cells were lysed with 50 μL 1× Glo Lysis Buffer (Promega). Dual Glo Luciferase Reagent (50 μL/well) was then added and firefly luciferase luminescence was read on an Envision after a ten minute incubation. Finally, Stop and Glo reagent (50 μL/well) was added and renilla luciferase luminescence was read on an Envision after a ten minute incubation. To calculate the effect of compounds on RORγt activity, the ratio of firefly to renilla luciferase was determined and plotted against compound concentration. Agonist compounds increase RORγt-driven luciferase expression, and antagonist or inverse agonist compounds decrease luciferase expression.
On the technique in general: A reporter such as luciferase makes a cellular process visible.

Experiment [2] concerns IL-17 production by CD4 T cells. Put plainly: Human Th17 Assay. In kind it is cell-based. The following applies: 3 days. An excerpt:
The human Th17 assay tests the effect of RORγt modulatory compounds on IL-17 production by CD4 T cells under conditions which favor Th17 differentiation. Total CD4^+ T cells were isolated from the peripheral blood mononuclear cells (PBMC) of healthy donors using a CD4^+ T cell isolation kit II, following the manufacturer's instructions (Miltenyi Biotec). Cells were resuspended in a medium of RPMI-1640 supplemented with 10% fetal bovine serum, penicillin, streptomycin, glutamate, and β-mercaptoethanol and were added to 96-well plates at 1.5×10^5 per 100 μL per well. 50 μL of compound at titrated concentrations in DMSO were added into each well at final DMSO concentration at 0.2%. Cells were incubated for 1 hour, then 50 μL of Th17 cell differentiation medium was added to each well. The final concentrations of antibodies and cytokines (R&D Systems) in differentiation medium were: 3×10^6/mL anti-CD3/CD28 beads (prepared using human T cell activation/expansion kit, Miltenyi Biotec), 10 μg/mL anti-IL4, 10 μg/mL anti-IFNγ, 10 ng/mL IL1β, 10 ng/mL IL23, 50 ng/mL IL6, 3 ng/mL TGFβ and 20 U/mL IL2. Cells were cultured at 37° C. and 5% CO2 for 3 days. Supernatants were collected and the accumulated IL-17 in culture was measured by using MULTI-SPOT® Cytokine Plate following manufacture's instruction (Meso Scale Discovery). The plate was read using Sector Imager 6000, and IL-17 concentration was extrapolated from the standard curve. The IC50s were determined by GraphPad.

Where a name gives a salt, the structure may show the parent alone.

human RORγt LBD, sequence (P51449 258-518): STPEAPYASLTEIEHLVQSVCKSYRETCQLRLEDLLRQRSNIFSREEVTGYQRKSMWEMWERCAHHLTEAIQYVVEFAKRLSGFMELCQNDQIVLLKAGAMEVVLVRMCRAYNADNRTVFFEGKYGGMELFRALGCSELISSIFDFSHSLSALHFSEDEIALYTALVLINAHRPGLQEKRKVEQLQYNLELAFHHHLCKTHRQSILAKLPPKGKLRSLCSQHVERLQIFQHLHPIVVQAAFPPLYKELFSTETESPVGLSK

The term IC50 denotes the concentration that gives 50% inhibition. The low end stands for inhibition by little substance, the high end for a need for much substance. What is called inhibition is the drop in the measured response relative to a control, in per cent. On to `CC(C)C(O)(c1ccc2nc(Cl)c(-c3ccccc3)c(Cl)c2c1)c1cncn1C` (stereo not shown) [Example 5, 1-(2,4-Dichloro-3-phenylquinolin-6-yl)-2-methyl-1-(1-methyl-1H-imidazol-5-yl)propan-1-ol], for which, in experiment [1], half-maximal inhibition (IC50) was put at 1300 nM and the inhibition at 6 µM was found to be 118%.

On to `CCC(O)(c1ccc2nc(OC)c(Cc3ccc(C(F)(F)F)cc3)c(Cl)c2c1)C1CN(C(=O)OC(C)(C)C)C1` (stereo not shown) [Example 17, tert-Butyl-3-(1-(4-chloro-2-methoxy-3-(4-(trifluoromethyl)benzyl)quinolin-6-yl)-1-hydroxypropyl)azetidine-1-carboxylate], for which, in experiment [1], the IC50 amounted to 500 nM and the inhibition at 6 µM stood at 98%.

For the compound `COc1nc2ccc(C(C)(O)c3cnnn3C)cc2c(Cl)c1Cc1ccc(C(F)(F)F)cc1` (single isomer, unassigned) [Example 11c, 1-(4-Chloro-2-methoxy-3-(4-(trifluoromethyl)benzyl)quinolin-6-yl)-1-(1-methyl-1H-1,2,3-triazol-5-yl)ethanol], the IC50 in experiment [2] worked out at 57 nM. In experiment [1], the IC50 was determined as 15 nM and the “RORγt reporter Assay, % inhibition @ 6 μM” value is given as 99%.

As for `C#CC(O)(c1ccc2nc(OC)c(Cc3ccc(C(F)(F)F)cc3)c(Cl)c2c1)c1cnc(C)n1C` (single isomer, unassigned) [Example 14b, 1-(4-Chloro-2-methoxy-3-(4-(trifluoromethyl)benzyl)quinolin-6-yl)-1-(1,2-dimethyl-1H-imidazol-5-yl)prop-2-yn-1-ol], the midpoint of inhibition in experiment [2] (Homo sapiens, CD4+ T, 72 h), the IC50, lay at 190 nM. In experiment [1], half-maximal inhibition (IC50) was put at 66 nM and the inhibition at 6 µM was 84%.

As for `Cn1cncc1C(O)(c1ccc2nc(Cl)c(-c3ccccc3)c(Cl)c2c1)C1CC1` (stereo not shown) [Example 3, Cyclopropyl(2,4-dichloro-3-phenylquinolin-6-yl)(1-methyl-1H-imidazol-5-yl)methanol], in experiment [1], the IC50 was more than 6000 nM and the inhibition at 6 µM turned out to be 56%.

As for `COc1nc2ccc(C(C)(O)c3cncn3C)cc2c(Cl)c1Cc1ccc(C(F)(F)F)cc1` (single isomer, unassigned) [Example 9c, 1-(4-Chloro-2-methoxy-3-(4-(trifluoromethyl)benzyl)quinolin-6-yl)-1-(1-methyl-1H-imidazol-5-yl)ethanol], in experiment [2] (Homo sapiens, CD4+ T, 72 h), it took 280 nM to reach half-maximal inhibition (IC50). In addition, in experiment [1], the IC50 stood at 180 nM and the “RORγt reporter Assay, % inhibition @ 6 μM” value is reported as 98%.

In the case of `C#CC(O)(c1ccc2nc(OC)c(Cc3ccc(C(F)(F)F)cc3)c(Cl)c2c1)C1CN(C(=O)OC(C)(C)C)C1` (stereo not shown) [Example 8, tert-Butyl-3-(1-(4-chloro-2-methoxy-3-(4-(trifluoromethyl)benzyl)quinolin-6-yl)-1-hydroxyprop-2-yn-1-yl)azetidine-1-carboxylate], in experiment [1], inhibition was half-maximal at 4000 nM (IC50) and the inhibition at 6 µM was 71%.

On to `COc1nc2ccc(C(C)(O)c3cnc(C)n3C)cc2c(Cl)c1Cc1ccc(C(F)(F)F)cc1` (stereo not shown) [Example 12a, 1-(4-Chloro-2-methoxy-3-(4-(trifluoromethyl)benzyl)quinolin-6-yl)-1-(1,2-dimethyl-1H-imidazol-5-yl)ethanol], for which, in experiment [1], the IC50 came to 370 nM and the inhibition at 6 µM worked out at 99%.

With `Cc1nc(C)c(C(O)(c2ccc3nc(Cl)c(-c4ccccc4)c(Cl)c3c2)C(C)C)s1` (stereo not shown) [Example 15, 1-(2,4-Dichloro-3-phenylquinolin-6-yl)-1-(2,4-dimethylthiazol-5-yl)-2-methylpropan-1-ol], in experiment [1], the IC50 is approximately 500 nM and the inhibition at 6 µM amounted to 99%.

In the case of `COc1nc2ccc(C(C)(O)c3cnnn3C)cc2c(Cl)c1Cc1ccc(C(F)(F)F)cc1` (stereo not shown) [Example 11a, 1-(4-Chloro-2-methoxy-3-(4-(trifluoromethyl)benzyl)quinolin-6-yl)-1-(1-methyl-1H-1,2,3-triazol-5-yl)ethanol], in experiment [1], half-maximal inhibition (IC50) required 110 nM and the inhibition at 6 µM is 102%.

In the case of `COc1nc2ccc(C(C)(O)c3cncn3C)cc2c(Cl)c1Cc1ccc(C(F)(F)F)cc1` (single isomer, unassigned) [Example 9b, 1-(4-Chloro-2-methoxy-3-(4-(trifluoromethyl)benzyl)quinolin-6-yl)-1-(1-methyl-1H-imidazol-5-yl)ethanol], in experiment [1], the IC50 is 1300 nM and the inhibition at 6 µM turned out to be 89%.

For `COc1nc2ccc(C(C)(O)c3oc(C)nc3C)cc2c(Cl)c1Cc1ccc(C(F)(F)F)cc1` (single isomer, unassigned) [Example 10a, 1-(4-Chloro-2-methoxy-3-(4-(trifluoromethyl)benzyl)quinolin-6-yl)-1-(2,4-dimethyloxazol-5-yl)ethanol], in experiment [1], the IC50 is 250 nM and the inhibition at 6 µM is 101%.

Turning to `C#CC(O)(c1ccc2nc(OC)c(Cc3ccc(C(F)(F)F)cc3)c(Cl)c2c1)c1cnc(C)n1C` (stereo not shown) [Example 14a, 1-(4-Chloro-2-methoxy-3-(4-(trifluoromethyl)benzyl)quinolin-6-yl)-1-(1,2-dimethyl-1H-imidazol-5-yl)prop-2-yn-1-ol], in experiment [1], the IC50 came out at 210 nM and the inhibition at 6 µM was 81%.

As for `CCC(O)(c1ccc2nc(OC)c(Cc3ccc(S(C)(=O)=O)cc3)c(Cl)c2c1)c1cncn1C` (stereo not shown) [Example 6, 1-(4-Chloro-2-methoxy-3-(4-(methylsulfonyl)benzyl)quinolin-6-yl)-1-(1-methyl-1H-imidazol-5-yl)propan-1-ol], in experiment [1], half-maximal inhibition (IC50) required 1700 nM and the inhibition at 6 µM was 76%.

Turning to `CCCCC(O)(c1ccc2nc(Cl)c(-c3ccccc3)c(Cl)c2c1)c1cc(C)no1` (stereo not shown) [Example 1, 1-(2,4-Dichloro-3-phenylquinolin-6-yl)-1-(3-methylisoxazol-5-yl)pentan-1-ol.TFA], the IC50 in experiment [2] (Homo sapiens, 72 h) was approximately 3000 nM.

`C#CC(O)(c1ccc2nc(OC)c(Cc3ccc(C(F)(F)F)cc3)c(Cl)c2c1)C1CN(C(C)=O)C1` (single isomer, unassigned) [Example 7b, 1-(3-(1-(4-chloro-2-methoxy-3-(4-(trifluoromethyl)benzyl)quinolin-6-yl)-1-hydroxyprop-2-yn-1-yl)azetidin-1-yl)ethanone]: in experiment [1], the IC50 stood at 360 nM and the inhibition at 6 µM is 97%.

As to `COc1nc2ccc(C(C)(O)c3cncn3C)cc2c(Cl)c1Cc1ccc(C(F)(F)F)cc1` (stereo not shown) [Example 9a, 1-(4-Chloro-2-methoxy-3-(4-(trifluoromethyl)benzyl)quinolin-6-yl)-1-(1-methyl-1H-imidazol-5-yl)ethanol], in experiment [1], the IC50 stood at 280 nM and the inhibition at 6 µM came to 98%.

For `CCCCC(O)(c1ccc2nc(Cl)c(-c3ccccc3)c(Cl)c2c1)c1cncn1C` (stereo not shown) [Example 4, 1-(2,4-Dichloro-3-phenylquinolin-6-yl)-1-(1-methyl-1H-imidazol-5-yl)pentan-1-ol.TFA], in experiment [1], half-maximal inhibition (IC50) required 1500 nM and the inhibition at 6 µM worked out at 114%.

On to `C#CC(O)(c1ccc2nc(OC)c(Cc3ccc(C(F)(F)F)cc3)c(Cl)c2c1)C1CN(C(C)=O)C1` (stereo not shown) [Example 7a, 1-(3-(1-(4-Chloro-2-methoxy-3-(4-(trifluoromethyl)benzyl)quinolin-6-yl)-1-hydroxyprop-2-yn-1-yl)azetidin-1-yl)ethanone], for which, in experiment [1], half-maximal inhibition (IC50) required 230 nM and the inhibition at 6 µM was 95%.

As for `CCC(O)(c1ccc2nc(Cl)c(-c3ccccc3)c(Cl)c2c1)c1cc(C)no1` (stereo not shown) [Example 2, 1-(2,4-Dichloro-3-phenylquinolin-6-yl)-1-(3-methylisoxazol-5-yl)propan-1-ol.TFA], the IC50 in experiment [2] (Homo sapiens, 72 h) is approximately 6000 nM.

Turning to `COc1nc2ccc(C(C)(O)c3ccc(C)nc3C)cc2c(Cl)c1Cc1ccc(C(F)(F)F)cc1` (stereo not shown) [Example 13a, 1-(4-Chloro-2-methoxy-3-(4-(trifluoromethyl)benzyl)quinolin-6-yl)-1-(2,6-dimethylpyridin-3-yl)ethanol], in experiment [1], the IC50 was 52 nM and the inhibition at 6 µM was determined as 103%.
